Reference: ChEMBL document CHEMBL1201862, “PubChem BioAssay data set” (2004)
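Interpolation was linear, between the two tested concentrations surrounding the appropriate level; five concentrations were tested over 48 hours in 96-well plates. Abbreviation: GI50, concentration required for 50% inhibition of growth.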 Calls of active or inactive are those of the source. Rule as the data show it: active = GI50 up to about 1.1 µM and inactive = higher.

Key:
Test in all cases: growth of human tumour cells (NCI), 48 h
[1] = tested on: KM12
[2] = tested on: MOLT-4
[3] = tested on: SN12C
[4] = tested on: LOX IMVI
[5] = tested on: SK-MEL-28
[6] = tested on: HCT-15
[7] = tested on: U-251
[8] = tested on: UO-31
[9] = tested on: SK-MEL-5
[10] = tested on: CCRF-CEM
[11] = tested on: HOP-62
[12] = tested on: TK-10
[13] = tested on: HT-29
[14] = tested on: UACC-257
[15] = tested on: SK-MEL-2
[16] = tested on: SF-295
[17] = tested on: SF-539
[18] = tested on: HCT-116

Structure (SMILES) | GI50 [1] | GI50 [2] | GI50 [3] | GI50 [4] | GI50 [5] | GI50 [6] | GI50 [7] | GI50 [8] | GI50 [9] | GI50 [10] | GI50 [11] | GI50 [12] | GI50 [13] | GI50 [14] | GI50 [15] | GI50 [16] | GI50 [17] | GI50 [18]
CC12CCC(=O)N1c1cccnc1N2 (configuration not stated) | > 100 µM (inactive) | > 100 µM (inactive) | > 100 µM (inactive) | > 100 µM (inactive) | > 100 µM (inactive) | > 100 µM | > 100 µM (inactive) | > 100 µM (inactive) | > 100 µM (inactive) | > 100 µM (inactive) | > 100 µM (inactive) | > 100 µM (inactive) | > 100 µM (inactive) | > 100 µM (inactive) | > 100 µM (inactive) | > 100 µM (inactive) | > 100 µM (inactive) | 
C=CCC(O)c1cc(OC)ccc1OC (configuration not stated) | > 100 µM (inactive) | > 10 µM (inactive) | > 100 µM (inactive) | > 100 µM (inactive) | > 100 µM (inactive) | > 100 µM | > 100 µM (inactive) | > 100 µM (inactive) | > 100 µM (inactive) | > 100 µM (inactive) | > 100 µM (inactive) | > 100 µM (inactive) | > 100 µM (inactive) | > 100 µM (inactive) | > 100 µM (inactive) | > 100 µM (inactive) | > 100 µM (inactive) | 
COC1C(OC(=O)c2ccc(C)[nH]2)C(O)C(Oc2ccc3c(O)c(NC(=O)c4c[nH]c(C(=O)Nc5c(O)c6ccc(OC7OC(C)(C)C(OC)C(OC(=O)c8ccc(C)[nH]8)C7O)c(C)c6oc5=O)c4C)c(=O)oc3c2C)OC1(C)C (configuration not stated) | 1.32 µM (inactive) | 0.857 µM (active) | 1.54 µM (inactive) | 2.77 µM (inactive) | 0.475 µM (active) | 1.88 µM | 0.597 µM (active) | 1.45 µM (inactive) | 2.61 µM (inactive) | 2.34 µM (inactive) |  | 4.86 µM (inactive) | 3.9 µM (inactive) | 3.95 µM (inactive) | 2.28 µM (inactive) | 4.01 µM (inactive) |  | 
COc1cc2c([C@@H](OC(=O)c3ccccc3)c3ccc4c(c3)OCO4)nccc2c(OC)c1OC |  | 13.5 µM (inactive) | 38.5 µM (inactive) | 29.2 µM (inactive) |  | 37.6 µM | 61.7 µM (inactive) | 2.7 µM (inactive) | 17.9 µM (inactive) | 28.6 µM (inactive) | > 100 µM (inactive) | 75.9 µM (inactive) | 67.3 µM (inactive) | 38.4 µM (inactive) |  | 44.3 µM (inactive) | 82.2 µM (inactive) | 26.9 µM (inactive)
O=c1[nH][nH]c(=O)[nH]1 | > 100 µM (inactive) | > 100 µM (inactive) |  | > 100 µM (inactive) | > 100 µM (inactive) | > 100 µM | > 100 µM (inactive) | > 100 µM (inactive) | > 100 µM (inactive) | > 100 µM (inactive) | > 100 µM (inactive) | > 100 µM (inactive) | > 100 µM (inactive) | > 100 µM (inactive) | > 100 µM (inactive) | > 100 µM (inactive) | > 100 µM (inactive) | > 100 µM (inactive)
Nn1c(S)nnc1N/N=C1/C(=O)Nc2ccccc21 | 92.3 µM (inactive) | 30.7 µM (inactive) | 50.6 µM (inactive) | 35.4 µM (inactive) | 33.7 µM (inactive) | 57.7 µM | 58.3 µM (inactive) | 47 µM (inactive) |  | 47.3 µM (inactive) | 64.9 µM (inactive) | > 100 µM (inactive) | > 100 µM (inactive) | > 100 µM (inactive) | > 100 µM (inactive) | 82.8 µM (inactive) | 94 µM (inactive) | 53.1 µM (inactive)
C=CC/N=C1\NC(=O)C(CC(=O)Nc2ccc(C)cc2)S1 (configuration not stated) | > 100 µM (inactive) | > 100 µM (inactive) | > 100 µM (inactive) | > 100 µM (inactive) | > 100 µM (inactive) | > 100 µM | > 100 µM (inactive) | > 100 µM (inactive) | > 100 µM (inactive) | > 100 µM (inactive) | > 100 µM (inactive) | > 100 µM (inactive) | > 100 µM (inactive) |  | > 100 µM (inactive) | > 100 µM (inactive) | > 100 µM (inactive) | 
N=C1NC2(O)C(=O)c3ccccc3C2(O)N1 (configuration not stated) | > 100 µM (inactive) | > 100 µM (inactive) | > 100 µM (inactive) | > 100 µM (inactive) | > 100 µM (inactive) | > 100 µM | > 100 µM (inactive) |  | > 100 µM (inactive) | > 100 µM (inactive) | > 100 µM (inactive) | > 100 µM (inactive) | > 100 µM (inactive) | > 100 µM (inactive) | > 100 µM (inactive) | > 100 µM (inactive) | > 100 µM (inactive) | > 100 µM (inactive)
N#C/C(=C1\OC(=N)C(c2ccc(Cl)cc2Cl)C1=O)c1ccc(Cl)cc1Cl (configuration not stated) |  | > 100 µM (inactive) | > 100 µM (inactive) | > 100 µM (inactive) | > 100 µM (inactive) | > 100 µM |  | 56.6 µM (inactive) | > 100 µM (inactive) |  |  | > 100 µM (inactive) | > 100 µM (inactive) | > 100 µM (inactive) | > 100 µM (inactive) | > 100 µM (inactive) | > 100 µM (inactive) | > 100 µM (inactive)
NC(=O)N/N=C(/c1nc2ccc([N+](=O)[O-])cc2nc1O)C(O)c1ccco1 (configuration not stated) |  | 94.6 µM (inactive) | 17.4 µM (inactive) | 21.6 µM (inactive) | 96.6 µM (inactive) | 12 µM | 54.2 µM (inactive) | 53.6 µM (inactive) | 30 µM (inactive) | 34.7 µM (inactive) | 35.3 µM (inactive) | > 100 µM (inactive) | 46.2 µM (inactive) | > 100 µM (inactive) |  | 80.7 µM (inactive) | 15.8 µM (inactive) | > 100 µM (inactive)
O=C1c2ccccc2C(=O)C2C3c4ccccc4C(c4ccccc43)C12 (configuration not stated) | 28.2 µM (inactive) | 12.7 µM (inactive) | 23.9 µM (inactive) | 13.5 µM (inactive) | 29.8 µM (inactive) | 39 µM | 31 µM (inactive) | 21.8 µM (inactive) |  | 10.7 µM (inactive) | 30 µM (inactive) | 24.5 µM (inactive) | 21.1 µM (inactive) | 23.7 µM (inactive) |  | 12.8 µM (inactive) | 12.5 µM (inactive) | 28.8 µM (inactive)
CCc1ccc(Nc2ccc([N+](=O)[O-])cc2[N+](=O)[O-])cc1 | 52.5 µM (inactive) | 19.1 µM (inactive) |  |  | > 100 µM (inactive) | 96.4 µM | 77.1 µM (inactive) | 26.2 µM (inactive) | 38.6 µM (inactive) | 35.2 µM (inactive) | > 100 µM (inactive) | 73.8 µM (inactive) | 47.3 µM (inactive) | 67.8 µM (inactive) | > 100 µM (inactive) | 89.7 µM (inactive) | > 100 µM (inactive) | 36.7 µM (inactive)
c1cncc(C2c3[nH]c4ccccc4c3CCN2CCN2CCCCC2)c1 (configuration not stated) | > 100 µM (inactive) | > 100 µM (inactive) | > 100 µM (inactive) | > 100 µM (inactive) | 46.7 µM (inactive) | > 100 µM | > 100 µM (inactive) | 38.3 µM (inactive) | > 100 µM (inactive) | 56.4 µM (inactive) | > 100 µM (inactive) | > 100 µM (inactive) | > 100 µM (inactive) | 32.9 µM (inactive) |  | > 100 µM (inactive) | > 100 µM (inactive) | > 100 µM (inactive)
CNC(SC)=C1C(=O)OC(C)(C)OC1=O | > 100 µM (inactive) | > 100 µM (inactive) | > 100 µM (inactive) | 73.3 µM (inactive) | > 100 µM (inactive) | 19.8 µM | 18.1 µM (inactive) | > 100 µM (inactive) | > 100 µM (inactive) | > 100 µM (inactive) | > 100 µM (inactive) | > 100 µM (inactive) | > 100 µM (inactive) | > 100 µM (inactive) | 37.1 µM (inactive) | > 100 µM (inactive) |  | 58.2 µM (inactive)
COc1ccc(C2=NN(c3ccccc3)C[N+](c3ccc(C)cc3)=N2)cc1 | > 10 µM (inactive) | 19.8 µM (inactive) | 66.5 µM (inactive) | 32 µM (inactive) | 58.9 µM (inactive) | 51.2 µM | 20.6 µM (inactive) | 38.3 µM (inactive) | > 10 µM (inactive) | 19.3 µM (inactive) | > 100 µM (inactive) | > 100 µM (inactive) | 73.1 µM (inactive) | > 100 µM (inactive) |  | > 100 µM (inactive) |  | 35.1 µM (inactive)
CN(C)CCNC(=O)c1ccc(Cl)c2c(Nc3ccc(S(N)(=O)=O)cc3)c3ccccc3nc12 | 1.39 µM (inactive) | 0.198 µM (active) | 1.12 µM (active) | 0.594 µM (active) | 2.67 µM (inactive) | 2.84 µM | 2.16 µM (inactive) | 2.38 µM (inactive) | 2.49 µM (inactive) |  | 8.45 µM (inactive) | 2.95 µM (inactive) | 1.2 µM (inactive) | 3.44 µM (inactive) | 1.75 µM (inactive) | 3.41 µM (inactive) | 1.21 µM (inactive) | 0.29 µM (active)
C/C(=C\c1ccc(Cl)c(Cl)c1)[N+](=O)[O-] | 2.02 µM (inactive) | 0.398 µM (active) | 2.05 µM (inactive) | 0.314 µM (active) | 2.31 µM (inactive) | 1.35 µM | 1.71 µM (inactive) | 1.32 µM (inactive) | 2.04 µM (inactive) |  | 2.5 µM (inactive) | 1.86 µM (inactive) | 3.78 µM (inactive) | 1.3 µM (inactive) | 1.99 µM (inactive) | 3.68 µM (inactive) | 2.03 µM (inactive) | 2.77 µM (inactive)
